Data: PubChem BioAssay (NCI)
Where “and” joins values, the source holds several entries; their conditions need not be identical. Identical values can stand only once.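 Test compounds were applied to cells in 96-well plates for 48 hours at 5 doses. Here, GI50 denotes the concentration required for 50% inhibition of growth. TGI: total growth inhibition.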

Legend:
Assay in all cases: NCI anticancer screen, dose series, 48 h
[1] = system: 786-0 renal
[2] = system: A498 renal
[3] = system: A549 NSCLC
[4] = system: ACHN renal
[5] = system: BT-549 breast
[6] = system: CAKI-1 renal
[7] = system: CCRF-CEM leukemia
[8] = system: COLO 205 colon
[9] = system: DU-145 prostate
[10] = system: EKVX NSCLC
[11] = system: HCC-2998 colon
[12] = system: HCT-116 colon
[13] = system: HCT-15 colon
[14] = system: HOP-62 NSCLC
[15] = system: HS 578T breast
[16] = system: HT29 colon
[17] = system: IGROV1 ovarian
[18] = system: K-562 leukemia
[19] = system: KM12 colon
[20] = system: LOX IMVI melanoma
[21] = system: M14 melanoma
[22] = system: MALME-3M melanoma
[23] = system: MCF7 breast
[24] = system: MDA-MB-231 breast
[25] = system: MDA-MB-435
[26] = system: MDA-N
[27] = system: MOLT-4 leukemia
[28] = system: NCI-H226 lung
[29] = system: NCI-H460 lung
[30] = system: NCI-H522 lung
[31] = system: NCI/ADR-RES ovarian
[32] = system: OVCAR-3 ovarian
[33] = system: OVCAR-4 ovarian
[34] = system: OVCAR-5 ovarian
[35] = system: OVCAR-8 ovarian
[36] = system: PC-3 prostate
[37] = system: RPMI-8226 leukemia
[38] = system: RXF 393 renal
[39] = system: SF-268 CNS
[40] = system: SF-295 CNS
[41] = system: SK-MEL-2 melanoma
[42] = system: SK-MEL-28 melanoma
[43] = system: SK-MEL-5 melanoma
[44] = system: SK-OV-3 ovarian
[45] = system: SN12C renal
[46] = system: SNB-19 CNS
[47] = system: SNB-75 CNS
[48] = system: SR leukemia
[49] = system: SW-620 colon
[50] = system: T-47D breast
[51] = system: TK-10 renal
[52] = system: U251 CNS
[53] = system: UACC-257 melanoma
[54] = system: UACC-62 melanoma
[55] = system: UO-31 renal
[56] = system: HL-60(TB) leukemia
[57] = system: NCI-H23 lung
[58] = system: SF-539 CNS
[59] = system: HOP-92 NSCLC

Compound `Cc1ccc(C)n1-n1c(-c2ccccc2)n[nH]c1=O` has a TGI [1] greater than 100 µM, a TGI [2] greater than 100 µM and a TGI [3] greater than 100 µM. For the same compound, the TGI [4] was greater than 100 µM, the TGI [5] was greater than 100 µM and the TGI [6] was greater than 100 µM. It also gave a TGI [7] greater than 100 µM, a TGI [8] greater than 100 µM and a TGI [9] greater than 100 µM. For the same compound, the TGI [10] was greater than 100 µM, the TGI [11] was greater than 100 µM and the TGI [12] was greater than 100 µM. For the same compound, the TGI [13] was greater than 100 µM, the TGI [14] was greater than 100 µM and the TGI [15] was greater than 100 µM. It also gave a TGI [16] greater than 100 µM, a TGI [17] greater than 100 µM and a TGI [18] greater than 100 µM. It also gave a TGI [19] greater than 100 µM, a TGI [20] greater than 100 µM and a TGI [21] greater than 100 µM. It also gave a TGI [22] greater than 100 µM, a TGI [23] greater than 100 µM and a TGI [24] greater than 100 µM. For the same compound, the TGI [25] was 53.6 µM, the TGI [26] was 70.8 µM and the TGI [27] was greater than 100 µM. It also gave a TGI [28] greater than 100 µM, a TGI [29] greater than 100 µM and a TGI [30] greater than 100 µM. The TGI [31] was greater than 100 µM, the TGI [32] was greater than 100 µM and the TGI [33] was greater than 100 µM. It also gave a TGI [34] greater than 100 µM, a TGI [35] greater than 100 µM and a TGI [36] greater than 100 µM. For the same compound, the TGI [37] was greater than 100 µM, the TGI [38] was greater than 100 µM and the TGI [39] was greater than 100 µM. The TGI [40] was greater than 100 µM, the TGI [41] was greater than 100 µM and the TGI [42] was greater than 100 µM. It also gave a TGI [43] greater than 100 µM, a TGI [44] greater than 100 µM and a TGI [45] greater than 100 µM. It also gave a TGI [46] greater than 100 µM, a TGI [47] greater than 100 µM and a TGI [48] greater than 100 µM. It also gave a TGI [49] greater than 100 µM, a TGI [50] greater than 100 µM and a TGI [51] greater than 100 µM. The TGI [52] was greater than 100 µM, the TGI [53] was greater than 100 µM and the TGI [54] was greater than 100 µM. The TGI [55] was greater than 100 µM.

Compound `N#Cc1c(-c2ccccc2)c(C#N)c(=O)n(C2OC(CO)C(O)C(O)C2O)c1S` (stereo unspecified) has a TGI [1] greater than 100 µM, a TGI [2] greater than 100 µM and a TGI [3] greater than 100 µM. For the same compound, the TGI [4] was greater than 100 µM, the TGI [5] was greater than 100 µM and the TGI [6] was greater than 100 µM. The TGI [7] was greater than 100 µM, the TGI [9] was greater than 100 µM and the GI50 [11] was > 100 µM and 40.4 µM. The TGI [11] was greater than 100 µM, the TGI [13] was greater than 100 µM and the TGI [56] was greater than 100 µM. For the same compound, the TGI [14] was greater than 100 µM, the TGI [15] was greater than 100 µM and the TGI [16] was greater than 100 µM. The TGI [17] was greater than 100 µM, the TGI [18] was greater than 100 µM and the TGI [19] was greater than 100 µM. For the same compound, the TGI [20] was greater than 100 µM, the TGI [21] was greater than 100 µM and the TGI [22] was greater than 100 µM. For the same compound, the TGI [23] was greater than 100 µM, the TGI [24] was greater than 100 µM and the TGI [25] was greater than 100 µM. The TGI [26] was greater than 100 µM, the TGI [27] was greater than 100 µM and the TGI [28] was greater than 100 µM. It also gave a TGI [57] greater than 100 µM, a TGI [29] greater than 100 µM and a TGI [30] greater than 100 µM. For the same compound, the TGI [31] was greater than 100 µM, the TGI [32] was greater than 100 µM and the TGI [34] was greater than 100 µM. For the same compound, the TGI [35] was greater than 100 µM, the TGI [36] was greater than 100 µM and the TGI [37] was greater than 100 µM. For the same compound, the TGI [38] was greater than 100 µM, the TGI [39] was greater than 100 µM and the TGI [40] was greater than 100 µM. It also gave a TGI [58] greater than 100 µM, a TGI [41] greater than 100 µM and a TGI [42] greater than 100 µM. It also gave a TGI [43] greater than 100 µM, a TGI [44] greater than 100 µM and a TGI [45] greater than 100 µM. It also gave a TGI [46] greater than 100 µM, a TGI [47] greater than 100 µM and a TGI [48] greater than 100 µM. The TGI [49] was greater than 100 µM, the TGI [50] was greater than 100 µM and the TGI [51] was greater than 100 µM. It also gave a TGI [53] greater than 100 µM, a TGI [54] greater than 100 µM and a TGI [55] greater than 100 µM.

Compound `CC(C)(C)NC(=O)C12C3C4C1C1C2C3C41C(=O)NC(C)(C)C` (stereo unspecified) has a TGI [1] greater than 100 µM, a TGI [2] greater than 100 µM and a TGI [3] greater than 100 µM. The TGI [4] was greater than 100 µM, the TGI [5] was greater than 100 µM and the TGI [6] was greater than 100 µM. For the same compound, the TGI [7] was greater than 100 µM, the TGI [8] was greater than 100 µM and the TGI [9] was greater than 100 µM. It also gave a TGI [10] greater than 100 µM, a TGI [11] greater than 100 µM and a TGI [12] greater than 100 µM. The TGI [13] was greater than 100 µM, the TGI [56] was greater than 100 µM and the TGI [14] was greater than 100 µM. For the same compound, the TGI [59] was 71.6 µM, the TGI [15] was greater than 100 µM and the TGI [16] was greater than 100 µM. For the same compound, the TGI [17] was greater than 100 µM, the TGI [18] was greater than 100 µM and the TGI [19] was greater than 100 µM. The TGI [20] was greater than 100 µM, the TGI [21] was greater than 100 µM and the TGI [23] was greater than 100 µM. It also gave a TGI [24] greater than 100 µM, a TGI [25] greater than 100 µM and a TGI [26] greater than 100 µM. For the same compound, the TGI [27] was greater than 100 µM, the TGI [57] was greater than 100 µM and the TGI [29] was greater than 100 µM. For the same compound, the TGI [30] was greater than 100 µM, the TGI [31] was greater than 100 µM and the TGI [32] was greater than 100 µM. For the same compound, the TGI [33] was greater than 100 µM, the TGI [34] was greater than 100 µM and the TGI [35] was greater than 100 µM. It also gave a TGI [36] greater than 100 µM, a TGI [38] greater than 100 µM and a TGI [39] greater than 100 µM. For the same compound, the TGI [40] was greater than 100 µM, the TGI [58] was greater than 100 µM and the TGI [41] was greater than 100 µM. For the same compound, the TGI [42] was greater than 100 µM, the TGI [43] was greater than 100 µM and the TGI [45] was greater than 100 µM. For the same compound, the TGI [46] was greater than 100 µM, the TGI [48] was greater than 100 µM and the TGI [49] was greater than 100 µM. It also gave a TGI [50] greater than 100 µM, a TGI [51] greater than 100 µM and a TGI [52] greater than 100 µM. For the same compound, the TGI [53] was greater than 100 µM, the TGI [54] was greater than 100 µM and the TGI [55] was greater than 100 µM.

Work on `CC[C@@H](/C=C\CCC1(C[C@@H](N)CCC=C(C)C)OCCO1)O[Si](C(C)C)(C(C)C)C(C)C` yielded a TGI [1] of 31.8 µM, a TGI [2] of 32.4 µM and a TGI [3] of 33.1 µM. For the same compound, the TGI [4] was 32 µM, the TGI [5] was 35 µM and the TGI [6] was 35.4 µM. It also gave a TGI [7] of 58.7 µM, a TGI [8] of 27.3 µM and a TGI [9] of 40.3 µM. The TGI [10] was 29.3 µM, the TGI [11] was 26 µM and the TGI [12] was 31.4 µM. For the same compound, the TGI [13] was 35.4 µM, the TGI [56] was 23 µM and the TGI [14] was 48.2 µM. It also gave a TGI [59] of 28.7 µM, a TGI [15] of 52.4 µM and a TGI [16] of 32 µM. For the same compound, the TGI [17] was 30.6 µM, the TGI [18] was 31.1 µM and the TGI [19] was 35.3 µM. It also gave a TGI [20] of 18.3 µM, a TGI [21] of 33.6 µM and a TGI [23] of 30.2 µM. For the same compound, the TGI [24] was 33.6 µM, the TGI [25] was 34.9 µM and the TGI [26] was 30.7 µM. It also gave a TGI [27] of 37.1 µM, a TGI [28] of 34.2 µM and a TGI [57] of 38.2 µM. For the same compound, the TGI [29] was 34.9 µM, the TGI [30] was 39.7 µM and the TGI [31] was 33.9 µM. For the same compound, the TGI [32] was 38.8 µM, the TGI [33] was 36.8 µM and the TGI [34] was 31.1 µM. It also gave a TGI [35] of 26.4 µM, a TGI [36] of 29.6 µM and a TGI [37] of 38 µM. The TGI [38] was 37.3 µM, the TGI [39] was 39.9 µM and the TGI [40] was 37.4 µM. It also gave a TGI [58] of 34.1 µM, a TGI [41] of 31.7 µM and a TGI [42] of 38.4 µM. For the same compound, the TGI [43] was 32.7 µM, the TGI [44] was 37.8 µM and the TGI [45] was 31.6 µM. The TGI [46] was 32.8 µM, the TGI [47] was 34.6 µM and the TGI [48] was 14.5 µM. It also gave a TGI [49] of 51.6 µM, a TGI [50] of 48.7 µM and a TGI [51] of 31.2 µM. The TGI [52] was 35.1 µM, the TGI [53] was 36.6 µM and the TGI [54] was 31.9 µM. For the same compound, the TGI [55] was 32.3 µM.
